Columns and labels:
[1] = test system: PC12 cells; test: Neuroprotection in oxygen-glucose deprivation injured PC12 cells (MTT cell viability); format: cell-based; conditions: 1 and 10 μM, 24 h, MTT, vs model group
Experimental: The neuroprotective activity of IMM-H004 and IMM-H004G was evaluated on PC12 cells damaged by oxygen-glucose deprivation (OGD). PC12 cells were purchased from the American Type Culture Collection. Cultures were maintained at 37°C in 5% CO2 in a humidified incubator. For cell viability assay, PC12 cells were incubated in 96-well plates at a density of 5 × 10^4/ml for 24 h. In the sham group, PC12 cells were cultured in Dulbecco’s modified eagle medium supplemented with 5% fetal bovine serum and 5% equine serum (Gibco, USA). In the OGD group, PC12 cells were cultured in glucose-free Earle’s balanced salt solution supplemented with 15 mM Na2S2O4 for 2 h and then incubated with compounds of nerve growth factor (NGF, 10 μM), edaravone (10 μM, 50 μM), IMM-H004 (1 μM, 10 μM), and IMM-H004G (1 μM, 10 μM), respectively. After 24 h of incubation, MTT (5 mg/ml) was added into the cell cultures and incubated for an additional 4 h. Then the supernatant was removed and 100 μL DMSO was added. Absorbance was measured using an Ultramark microplate reader at a wavelength of 562 nm. The cell viability was expressed as a percentage of the absorbance density value of control cultures.

[2] = test system: human liver microsomes (HLMs); test: Kinetics of IMM-H004 demethylation (M1 and M2 formation) in human liver microsomes; format: in vitro ADME; conditions: substrate IMM-H004
Experimental: (§1) To compare the metabolic capability of IMM-H004 demethylation in rat and human liver microsomes, the kinetics of M1 and M2 formation in HLMs or RLMs were determined. Enzyme kinetic experiments were performed in triplicate. The incubation mixtures contained HLM/RLM (1 mg protein/ml), IMM-H004 (0.1–1,800 μM), and NADPH (1.2 mM) in a final volume of 0.2 ml Tris-HCl buffer (50 mM, pH 7.4) containing 5 mM MgCl2. The reaction was incubated at 37°C for 20 min and stopped by adding 200 μL of ice-cold acetonitrile containing IS (100 ng/ml). After vortex-mixing and centrifugation, M1 and M2 in the supernatant were analyzed by LC-MS/MS.
(§2) The LC-MS/MS system consisted of Shimadzu 30A UPLC and API 4000 triple quadruple mass spectrometer (AB SCIEX, USA). Data acquisition and analysis were accomplished using Analyst 1.5.2 software. The analytes and IS were chromatographed by injection of 1 μL sample. The mobile phases consisted of solvent A (0.5% formic acid in water) and solvent B (0.5% formic acid in methanol) at a flow rate of 0.3 ml/min on an Eclipse Plus C18 column (2.1 mm × 50 mm, 3.5 μm, Agilent, USA), and the operating temperature was 40°C. The elution condition was 10% solvent B for 0.7 min, ascending to 98% B in 2.3 min, holding for 3.0 min and reequilibrating to 10% B within 0.1 min and maintained for 2.4 min (Jiang JW, 2018). The specific transitions monitored were 305→248 for IMM-H004, 291→234 for M1, 291→248 for M2, 481→305 for IMM-H004G, 385→305 for M4, and 260→183 for IS.

[3] = test system: rat liver microsomes (RLMs); test: Kinetics of IMM-H004 demethylation (M1 and M2 formation) in rat liver microsomes; format: in vitro ADME; conditions: substrate IMM-H004
Experimental: as §1, §2

[4] = test system: rat liver microsomes (RLMs), UGT; test: Kinetics of IMM-H004G formation (glucuronidation) in UDPGA-supplemented rat liver microsomes; format: in vitro ADME; conditions: substrate IMM-H004
Experimental: To explore glucuronidation difference of IMM-H004 between humans and rats, the kinetics of IMM-H004G formation in UDPGA-supplemented HLMs and RLMs were determined. The incubation mixtures consisted of HLMs or RLMs (0.025 mg protein/ml), alamethicin (50 μg/mg protein), IMM-H004 (0.5–2,500 μM), and UDPGA (5 mM) in a final volume of 0.2 ml Tris-HCl buffer (50 mM, pH 7.4) containing 5 mM MgCl2. HLM or RLM was preincubated with alamethicin on ice for 15 min. The reaction was incubated at 37°C for 10 min and quenched by adding 200 μL of ice-cold acetonitrile containing IS (100 ng/ml). After vortex-mixing and centrifugation, IMM-H004G in the supernatant was analyzed by LC-MS/MS.
as §2, with “The elution condition was 10% solvent B for 0.7 min, ascending to 98% B in 2.3 min, holding for 3.0 min and reequilibrating to 10% B within 0.1 min and maintained for 2.4 min (Jiang JW, 2018).” left out

[5] = Plasma pharmacokinetics in MCAO/R rats after iv IMM-H004 citrate; format: in vivo; conditions: rat, iv IMM-H004 citrate 10 mg/kg
Experimental: The plasma pharmacokinetics (PK) and pharmacodynamics (PD) of IMM-H004 and IMM-H004G were investigated in a cerebral ischemia-reperfusion rat model produced by middle cerebral artery occlusion/reperfusion (MCAO/R) after iv administration of IMM-H004. In brief, rats underwent a 1-h MCAO and then received IMM-H004 citrate (10 mg/kg, dissolved in saline to yield a concentration of 2 mg/ml) immediately after reperfusion, an effective dosing time as reported ([Zuo et al., 2015]; [Yang et al., 2017]). For sham surgery, all the arteries were exposed for the surgical period, but the filament was not inserted into the MCA. Blood samples were collected through external jugular vein cannula into heparinized tubes at 0.033, 0.167, 0.5, 1, 2, 4, 6, 8, 12, 24, 36, and 48 h postdose for IMM-H004 and IMM-H004G detection (50 μL of blood at each time point) and at 0.5, 1, 2, 4, 7, and 10 h postdose for malondialdehyde (MDA) detection (80 μL of blood at each time point). Plasma was immediately separated by centrifugation at 900×g for 5 min. Plasma concentrations of IMM-H004 and IMM-H004G in ischemia-reperfusion rats were determined by LC-MS/MS analysis. The PK parameters were calculated by noncompartmental analysis using WinNonlin Version 6.1 (Pharsight, Mountain View, CA). Plasma MDA concentrations in ischemia-reperfusion and sham rats within 24 h were estimated by enzyme-linked immunosorbent assay.
as §2

- AUC(0-inf) [5]: 1640 ng·h/mL
- AUC(0-t) [5]: 1640 ng·h/mL
- Cmax [5]: 7460 ng/mL
- MRT last ([5]; read-out: MRT(0-t)): 10.8 ± 0.6 min
- MRT inf ([5]; read-out: MRT(0-∞)): 11.4 ± 1.2 min
- half-life ([5]; read-out: t 1/2β (converted)): 25.2 ± 1.8 min
- Tmax ([5]; iv, 10 mg/kg, read-out: T max): 1.8 min
Structure (SMILES): COc1cc(O)cc2oc(=O)c(N3CCN(C)CC3)c(C)c12 [IMM-H004, 7-hydroxy-5-methoxy-4-methyl-3-(4-methylpiperazin-1-yl)-coumarin]
- cell viability of OGD-injured PC12 cells [1]: significant (p < 0.05) preservation of viability
- K m of M1 formation (6-demethylation) [2]: 2,935.0 μM
- K m of M2 formation (N-demethylation) [2]: 491.4 µM
- V max of M1 formation (6-demethylation) [2]: 1.99 nmol/min/mg protein
- V max of M2 formation (N-demethylation) [2]: 0.07 nmol/min/mg protein
- K m of M1 formation (6-demethylation) [3]: 1,244.0 μM
- K m of M2 formation (N-demethylation) [3]: 111.9 µM
- V max of M1 formation (6-demethylation) [3]: 1.34 nmol/min/mg protein
- V max of M2 formation (N-demethylation) [3]: 0.12 nmol/min/mg protein
- K m of IMM-H004G formation (glucuronidation) [4]: 9.5 µM
- V max of IMM-H004G formation (glucuronidation) [4]: 5.04 nmol/min/mg protein

Source: article PMC6584114, “Metabolism of IMM-H004 and Its Pharmacokinetic-Pharmacodynamic Analysis in Cerebral Ischemia/Reperfusion Injured Rats” (Frontiers in Pharmacology, 2019)
